Reference: US20250006334A1, “SIROLIMUS PHARMACOKINETICS GUIDED AND MODEL INFORMED PRECISION DOSING” (Children's Hospital Medical Center, priority 2023, published 2025)

Assay: Observed sirolimus trough blood concentration in infant patients under model-informed precision dosing
Format: in vivo, human
Source text: After therapy has been initiated using the initial dose, data may be collected 103 on the impact of the therapy. This may be done, for example, by, 7-14 days after the start of therapy, taking a pre-dose trough blood sample which could then be sent to a lab to determine a sirolimus blood concentration. Alternatively, in some cases additional samples may be taken. For example, in a case where an abbreviated area under the curve PK consult is ordered, data collection 103 may include taking three whole blood samples: a first sample taken 15-30 minutes before a dose, a second sample taken 45-75 minutes after the dose, and a third sample taken 150-210 minutes after the dose. A laboratory could then process the sample(s), and the sirolimus concentration could be reported back. For example, in a case where an application for recommending individualized sirolimus doses was implemented based on this disclosure, the lab could report the results back through an API exposed by a web portal supported by the application, or could send the results back through an external communication channel (e.g., secure email) to the user of the application, and that user could then input the results to the application himself or herself.
However the model refinement 105 is performed, once a refined model is available, it may be applied 106 to determine a personalized dose for the patient. […]

CO[C@H]1C[C@@H]2CC[C@@H](C)[C@@](O)(O2)C(=O)C(=O)N2CCCC[C@H]2C(=O)O[C@H]([C@H](C)C[C@@H]2CC[C@@H](O)[C@H](OC)C2)CC(=O)[C@H](C)/C=C(\C)[C@@H](O)[C@@H](OC)C(=O)[C@H](C)C[C@H](C)/C=C/C=C/C=C/1C [sirolimus]
observed sirolimus trough concentration at six months of age (FIG. 2, infant who started sirolimus at 2 months of age, doses predicted from weight, PMA and concentration measured at three months, target range 10-12 ng/mL): 9.3 ng/mL
observed sirolimus trough concentration at 6 months (FIG. 3, prediction from age 4 months to 6 months based on concentration at 4 months, weight and PMA, target trough range 10-12 ng/mL): 10.5 ng/mL
